# Key:
# HFF cells = experiment: Design of Experiments two-factor interaction on HFF cells (cell numbers/mL); assay type: cell-based, human; conditions: culture for 5 days
# Source text: Optimization of mixes is achieved using Design of Experiments (DoE) computer-based design and analysis protocols. Experiments are computer designed according to number of variables to test, and serial dilutions of those variables. Results are able to indicate two factor interactions. […] This enables the optimization of many interdependent nutrients using maxima and repeat application. […] Vertical axes reflect cell numbers/mL after culture for 5 days. Horizontal axes correspond to increasing concentration of indicated lipids.
# [1] = spectrophotometric assay using phenolphthalein indicator to determine complexation efficiency of lipids with cyclodextrins; assay type: physicochemical; conditions: extrapolated from free phenolphthalein absorbance
# Method: Solubilized lipids were evaluated by spectrophotometric assay using Phenolphthalein, which is known to occupy the complexing reagents used for five hydrophobic nutrients used in chemically defined mixes. Phenolphthalein is known to be displaced from the reagent when a hydrophobic moiety is complexed, so the concentration of occupied reagents was extrapolated from coloration indicating concentration of free phenolphthalein in solution when a known amount of solubilized nutrient was dosed with a known quantity of Phenolphthalein. […] Phenolphthalein is colored when free in solution at pH 8+. It readily complexes with cyclodextrins of all types and is colorless when complexed. It is preferentially displaced by more hydrophobic molecules, so when added to a known concentration of complexed lipids, the absorbance can determine how much free phenolphthalein is present, and therefore how many free cyclodextrins are present. Since the stoichiometry of mixing is 1:1, the concentration of cyclodextrins that are free to interact with Phenolphthalein logically equals the concentration of free lipid in solution.
free lipid concentration in solution relative to critical micelle concentration (literature level) [1],SMILES,two-factor interaction with PT (palmitate) on cell numbers/mL (HFF cells; FIG. 8A),two-factor interaction with α linolenic acid (ALA) on cell numbers/mL (HFF cells; FIG. 8B)
,"CCCCCC/C=C\CCCCCCCC(=O)O [PA, palmitoleic acid]",agonistic relationship,antagonist relationship
greater than the literature level,CCCCCCCC/C=C\CCCCCCCC(=O)O [oleic acid],,

# Reference: US11692167B2, “Chemically defined serum replacements for cell culture” (Montana State University, priority 2021, dated 2023)
